Assay results as given in PMC10541456, “A phase I, single‐center, open‐label study to investigate the absorption, distribution, metabolism and excretion of encorafenib following a single oral dose of 100 mg [ ^14C] encorafenib in healthy male subjects” (Pharmacology Research & Perspectives, 2023).

How the values were obtained:
[1] = Metabolite profiles in excreta (urine, feces); assay type: in vivo, human
Protocol: A pool of equal percent volume of urine (0–48 h) was prepared for each subject. An aliquot (1.5 mL) of the pooled sample was concentrated ~7‐fold by reducing the volume under nitrogen and then combined with 50 μL methanol:water:acetic acid (50:50:0.1; v/v) followed by centrifugation at 3500 rpm (~1000 × g) for 10 min. The aliquot was then injected onto the UPLC system with off‐line radioactivity detection.
A pool of approximately equal percent by weight of feces (from 0–96 h or 0–120 h) was prepared for each subject. Feces samples were extracted two times with 2 equivalent volumes of acetonitrile: each time with 10 min of vortexing, 10 min of sonication, and centrifugation at 3500 rpm (~1000 × g) for 10 min. An aliquot of the combined supernatant was concentrated approximately 5‐fold by evaporating to dryness under nitrogen and reconstituting in methanol:water:acetic acid (50:50:0.1, v/v) 45 μL of the concentrated, reconstituted samples was injected onto the UPLC system with off‐line radioactivity detection.
Characterization and quantification of the metabolites of encorafenib in select human plasma and excreta samples were performed by the Department of DMPK (Drug Metabolism and Pharmacokinetics) at the Novartis Institutes for Biomedical Research (East Hanover, NJ, USA) using liquid chromatography (LC) coupled to radioactivity detectors and mass spectrometers (MS).
The analytical system consisted of a Waters ACQUITY UPLC system (Waters), equipped with a Phenomenex Luna PFP column (3 μm, 4.6 × 150 mm) (Phenomenex) and a guard column of the same phase, both maintained at a temperature of 30°C. The mobile phases consisted of 10 mM ammonium acetate containing 0.1% formic acid (v/v) (solvent A) and CH3CN (solvent B). The total run time was 80 min. A linear gradient elution program was used with a flow rate of 1 mL/min as described in Table 1.
The UPLC effluent was split 4:1, with […] of the total flow introduced to the mass spectrometer for mass spectral analysis and the remaining flow used for radioactivity detection.
For off‐line radioactivity detection, the eluant was collected into 96‐well Lumaplate (Packard Instrument Co) microplates using a Collect Pal fraction collector (Leap Technologies) with a collection time of 10 seconds per well. The LumaPlates were sealed after drying and counted for 10–50 min per well on a Packard Topcount microplate scintillation counter. The structural characterization of metabolites was carried out using the above UPLC profiling method coupled to a two‐channel Z‐spray (LockSprayTM) time‐of‐flight mass spectrometer (Synapt MS). Leucine enkephalin was used as the mass reference standard for exact mass measurements and was delivered via the second spray channel at a flow rate of 5 μL/minute. […]
All radioactivity data were transferred to Laura software (version 4.2.2.24, Lab Logic Ltd, UK) to generate and integrate radio‐chromatograms. Radioactive peaks for quantitative analysis were manually selected from the plots. The radioactivity in the region encompassing the beginning and end of the peak was summed. All further calculations were based on radioactivity.
The percent of radioactivity (%RA) in a particular peak, Z, was calculated as follows in Equation (1): (1) %RAinZ=DPMin PeakZ/totalDPMinallintegrated peaksx100
The concentration or amount of each component was calculated as % RA (expressed as a fraction) multiplied by the total concentration of radioactivity in plasma, or the percent of dose in the excreta.

CYP3A4 = system: CYP3A4; design: method as in earlier work; details: cited from earlier work

- Metabolism as clearance pathway, share of the recovered radioactive dose ([1]; humans): ~ 88%
- CLr as share of the glomerular filtration rate (7.5 L/h) ([1]; in vivo): 7%
- CL renal ([1]; male, human, urine and plasma, oral, 100 mg, amount in urine divided by mean plasma AUCinf, read-out: Renal clearance (CLr), estimated mean (converted)): 8.33 mL/min
Compound: COC(=O)N[C@@H](C)CNc1nccc(-c2cn(C(C)C)nc2-c2cc(Cl)cc(NS(C)(=O)=O)c2F)n1 [encorafenib]
- Component in feces, average ([1]; feces pool 0–96 h or 0–120 h, average of four subjects): 5.0 % of the administered radioactive dose
- Component in urine, average ([1]; urine pool 0–48 h, average of four subjects): 1.8 % of the administered radioactive dose
- Contribution of CYP3A4 to metabolism (CYP3A4): 83%
